Reference: article PMC8565515, “Dasabuvir Inhibits Human Norovirus Infection in Human Intestinal Enteroids” (mSphere, 2021)
Structures can show the parent of a compound that is named as a salt. Where two headings read alike, the source gives them in different places.

Legend:
[1] = system: GII.4 HuNoV; assay: GII.4 HuNoV infection of HIE monolayers, viral genome equivalents by RT-qPCR; format: cell-based, human norovirus; settings: for activity at 10 µM: Norovirus, 24 h, read-out: (%) HuNoV GEs
[2] = system: J2 HIE monolayers
[3] = compound 10 μM, n = 1, J2 HIE monolayers, GII.4 HuNoV, 24 hpi, normalized to DMSO control

| Compound | activity at 10 µM [1, 3] | (%) Cytotoxicity ([2]; human, 24 h, 10 μM) | further results |
| --- | --- | --- | --- |
| Dermofongin |  |  | (%) HuNoV GEs [1, 3]: 46.93% |
| CN(C(=O)CN(CCO)CC(=O)N(C)C(C)(C)Cc1ccccc1)C(C)(C)Cc1ccccc1 [Oxethazaine] | 29.4% | 1.91% |  |
| Cc1ccc(NC(=O)C(=O)NC2CC(C)(C)NC(C)(C)C2)cc1 [YYA-021] |  |  | (%) HuNoV GEs [1, 3]: 54.17% |
| Cc1cn([C@H]2C=C[C@@H](CO)O2)c(=O)[nH]c1=O [Stavudine] | 124% | 2.15% |  |
| CCOC(=O)CCc1c(C)nc2c(c(C)nn2-c2ccc(C)cc2)c1C [C430-0518] |  |  | (%) HuNoV GEs [1, 3]: 170.30%; (%) Cytotoxicity [2]: -1.01% |
| Clc1ccc(COC(Cn2ccnc2)c2ccc(Cl)cc2Cl)cc1 (stereo not shown) [Econazole] | 95.8% | 7.35% |  |
| Cc1cc(F)c(C(=O)Nc2cccc(-c3nncn3C(C)C)n2)cc1-n1cnc(C2CC2)c1 [Selonsertib] | 48.5% | -2.58% |  |
| COC(=O)C1=C(C)NC(c2ncc(F)cc2F)=NC1c1ccc(F)cc1Cl (racemic) [Bay 41-4109 racemate] |  |  | (%) HuNoV GEs [1, 3]: 39.26% |
| Nc1ccn([C@H]2CC[C@@H](CO)O2)c(=O)n1 [Zalcitabine] | 71.5% | 2.88% |  |
| O=c1[nH]c(=O)n([C@H]2C[C@H](O)[C@@H](CO)O2)cc1C(F)(F)F [Trifluridine] | 77.1% | 0.46% |  |
| Cc1cccc(C)c1OCC(=O)N[C@@H](Cc1ccccc1)[C@@H](O)C[C@H](Cc1ccccc1)NC(=O)[C@H](C(C)C)N1CCCNC1=O [Lopinavir] | 102% | 9.07% |  |
| HZ-1157 |  |  | (%) HuNoV GEs [1, 3]: 36.74% |
| O=c1[nH]cc(F)c(=O)[nH]1 [Fluorouracil] | 27.4% | -0.47% |  |
| CC(=O)OCC(CCn1cnc2cnc(N)nc21)COC(C)=O [Famciclovir] | 27.3% | 0.72% |  |
| Nc1nc(NC2CC2)c2ncn([C@H]3C=C[C@@H](CO)C3)c2n1 [Abacavir] | 64.9% | 0.27% |  |
| CC(=O)Oc1ccccc1C(=O)Nc1ncc([N+](=O)[O-])s1 [Nitazoxanide] | 44.5% | 4.63% |  |
| Cc1cn([C@@H]2C[C@@H](O)[C@H](CO)O2)c(=O)[nH]c1=O [Telbivudine] | 70.2% | -0.33% |  |
| C=C(C)[C@@H]1CC[C@]2(CO)CC[C@]3(C)[C@H](CC[C@@H]4[C@@]5(C)CC[C@H](O)C(C)(C)[C@@H]5CC[C@]43C)[C@@H]12 [Betulin] | 69.8% |  | (%) Cytotoxicity ([2]; human): 4.24% |
| Cc1nn(CCC(=O)Nc2cccc(C#N)c2)c(C)c1S(=O)(=O)N1CCCCC1 [G402-0939] |  |  | (%) HuNoV GEs [1, 3]: 147.17% |
| NCCCNCCCCNCCCN [Spermine] | 116% | 2.77% |  |
| C[C@H](Cn1cnc2c(N)ncnc21)OCP(=O)(O)O [Tenofovir] | 56.5% | 0.98% |  |
| CC(=O)OCC(=O)[C@@]1(O)CC[C@H]2[C@@H]3CCC4=CC(=O)C=C[C@]4(C)[C@@]3(Cl)[C@@H](Cl)C[C@@]21C [Dichlorisone Acetate] | 59.1% | -1.58% |  |

| Compound | activity at 10 µM [1, 3] | (%) Cytotoxicity ([2]; human, 24 h, 10 μM) | further results |
| --- | --- | --- | --- |
| Nc1nc(O)c2ncn(COC(CO)CO)c2n1 [Ganciclovir] | 117% | 3.59% |  |
| C=C1[C@H](CO)[C@@H](O)C[C@@H]1n1cnc2c(=O)[nH]c(N)nc21 [Entecavir hydrate] | 23.6% | -1.04% |  |
| CC1(C)O[C@H]2CC(=O)OC[C@]23[C@H]2CC[C@@]4(C)[C@H](c5ccoc5)OC(=O)[C@H]5O[C@]54[C@]2(C)C(=O)C[C@@H]13 [Limonin] | 59.9% | 0.73% |  |
| CC(C)[C@H](N)C(=O)OCC(CO)OCn1cnc2c(=O)nc(N)[nH]c21 (stereo partly shown) [Valganciclovir hydrochloride] | 189% | 0.33% |  |
| COC(=O)N[C@H](C(=O)N[C@@H](Cc1ccccc1)[C@@H](O)CN(Cc1ccc(-c2ccccn2)cc1)NC(=O)[C@@H](NC(=O)OC)C(C)(C)C)C(C)(C)C [Atazanavir] | 66.4% | 0.72% |  |
| NC(=O)N1CCC(CC(=O)N2CCC([C@H]3c4ncc(Br)cc4CCc4cc(Cl)cc(Br)c43)CC2)CC1 [Lonafarnib] | 62.3% |  |  |
| CC(C)(C)C(=O)OCOP(=O)(COCCn1cnc2c(N)ncnc21)OCOC(=O)C(C)(C)C [Adefovir dipivoxil] |  | 3.59% | activity at 10 µM [1]: 67.1% |
| O=C1c2cccc(O)c2C(=O)c2c(O)cc(CO)cc21 [Aloe-emodin] | 253% | 0.59% |  |
| O=C(O)c1ccccc1C(=O)Nc1ccc(S(=O)(=O)Nc2nccs2)cc1 [Phthalylsulfathiazole] | 44% | 2.05% |  |
| Nc1nc(=O)n([C@@H]2CS[C@H](CO)O2)cc1F [Emtricitabine] | 55.5% | 2.80% |  |
| CC(C)c1nc(CN(C)C(=O)N[C@H](C(=O)N[C@@H](Cc2ccccc2)C[C@H](O)[C@H](Cc2ccccc2)NC(=O)OCc2cncs2)C(C)C)cs1 [Ritonavir] | 52.7% | 1.11% |  |
| COC(=O)N[C@H](C(=O)N1CCC[C@H]1c1nc(-c2ccc(-c3ccc(-c4c[nH]c([C@@H]5CCCN5C(=O)[C@@H](NC(=O)OC)C(C)C)n4)cc3)cc2)c[nH]1)C(C)C [Daclatasvir dihydrochloride] | 178% | 5.28% |  |
| C[C@@]1(F)[C@H](O)[C@@H](CO)O[C@H]1n1ccc(=O)[nH]c1=O [PSI6206] |  |  | (%) HuNoV GEs [1, 3]: 143.70% |
| O=c1[nH]c(=O)n([C@H]2C[C@H](O)[C@@H](CO)O2)cc1F [Floxuridine] | 12.6% | 0.65% |  |
| CCc1nn(CC(=O)NCCCN(CC)CC)c(=O)c2cc3sc(C)cc3n12 [C795-0720] |  |  | (%) HuNoV GEs [1, 3]: 100.75%; (%) Cytotoxicity [2]: 0.72% |
| Clc1ccc(C(Cn2ccnc2)OCc2ccsc2Cl)c(Cl)c1 (stereo not shown) [Vagistat] | 28.3% | 3.16% |  |
| Cc1cc(O)cc(C)c1Cl [Chloroxylenol] | 65.9% |  |  |
| CO[C@H]1/C=C/O[C@@]2(C)Oc3c(C)c(O)c4c(O)c(c(/C=N/N5CCN(C)CC5)c(O)c4c3C2=O)NC(=O)/C(C)=C\C=C\[C@H](C)[C@H](O)[C@@H](C)[C@@H](O)[C@@H](C)[C@H](OC(C)=O)[C@@H]1C [Rifampicin] | 60.2% | 2.64% |  |
| S=C(NCCc1ccccn1)Nc1ccc(Br)cn1 [Trovirdine] |  |  | activity at 10 µM [1]: 48.3% |
| C[C@@H](c1ncncc1F)[C@](O)(Cn1cncn1)c1ccc(F)cc1F [Voriconazole] | 14.1% | -1.63% |  |
| CO/N=C(\C(=O)N[C@@H]1C(=O)N2C(C(=O)O)=C(COC(C)=O)CS[C@H]12)c1csc(N)n1 [Cefotaxime sodium] | 10.1% | 0.51% |  |
| CC(=O)N(CC(O)CO)c1c(I)c(C(=O)NCC(O)CO)c(I)c(C(=O)NCC(O)CO)c1I (stereo not shown) [Iohexol] | 55.3% | 1.11% |  |

| Compound | activity at 10 µM [1, 3] | (%) Cytotoxicity ([2]; human, 24 h, 10 μM) | further results |
| --- | --- | --- | --- |
| Maraviroc |  |  | (%) HuNoV GEs [1, 3]: 52.60% |
| CN(C)c1ccc(C(=C2C=CC(=[N+](C)C)C=C2)c2ccc(N(C)C)cc2)cc1 [Crystal Violet] | 14.5% | 55.49% |  |
| Cc1cn([C@H]2C[C@H](N=[N+]=[N-])[C@@H](CO)O2)c(=O)[nH]c1=O [Zidovudine] | 57.6% |  |  |
| NC(=O)c1ncn([C@@H]2O[C@H](CO)[C@@H](O)[C@H]2O)n1 [Ribavirin] | 64.5% |  |  |
| CC1(C)S[C@@H]2[C@H](NC(=O)[C@H](NC(=O)N3CCNC3=O)c3ccccc3)C(=O)N2[C@H]1C(=O)O [Azlocillin sodium] | 28% |  |  |
| Cc1cccc(N2CCN(S(=O)(=O)c3ccc4c(c3)CCCN4C(=O)C3CCC3)CC2)c1C [G855-2047] |  |  | (%) HuNoV GEs [1, 3]: 133.69% |
| NC12CC3CC(CC(C3)C1)C2 [Amantadine hydrochloride] | 232% |  |  |
| Cc1c(-c2cnccn2)ssc1=S [Oltipraz] | 7.76% |  |  |
| CC(=O)Oc1c(C)c(C)c2c(c1C)CCC(C)(CCC[C@H](C)CCC[C@H](C)CCCC(C)C)O2 (stereo partly shown) [Vitamin E Acetate] | 55.8% |  |  |
| O=C(Nc1nc2ccc3scnc3c2s1)c1ccc2ccccc2c1 [KIN1148] |  |  | (%) HuNoV GEs [1, 3]: 58.10% |
| CC(C)CN(C[C@@H](O)[C@H](Cc1ccccc1)NC(=O)O[C@H]1CO[C@H]2OCC[C@H]21)S(=O)(=O)c1ccc(N)cc1.CCO [Darunavir Ethanolate] |  |  | (%) HuNoV GEs [1, 3]: 147.86% |
| O=C(O)[C@H]1O[C@@H](Oc2cc3oc(-c4ccccc4)cc(=O)c3c(O)c2O)[C@H](O)[C@@H](O)[C@@H]1O [Baicalin] | 97.7% |  |  |
| C[C@@H]1CCO[C@H]2Cn3cc(C(=O)NCc4ccc(F)cc4F)c(=O)c(O)c3C(=O)N12 [Dolutegravir] | 8.52% |  |  |
| C=C1CC[C@@H]2[C@](C)(COC(=O)CCC(=O)[O-])[C@H](OC(=O)CCC(=O)O)CC[C@@]2(C)[C@@H]1/C=C/C1=CCOC1=O.[K+] [Dehydroandrographolide Succinate Potasium Salt] |  |  | (%) HuNoV GEs [1, 3]: 40.48% |
| O=C(Nc1ccccc1)c1ccccc1O [Salicylanilide] | 85.5% |  |  |
| Cn1c(Cn2ccc(C(F)(F)F)c(Oc3cc(Cl)cc(C#N)c3)c2=O)n[nH]c1=O [Doravirine] | 32.7% |  |  |
| CC(C)CN(C[C@@H](O)[C@H](Cc1ccccc1)NC(=O)O[C@H]1CO[C@H]2OCC[C@H]21)S(=O)(=O)c1ccc(N)cc1 [Darunavir] | 91.8% |  |  |
| Dicurone |  |  | (%) HuNoV GEs [1, 3]: 90.75% |
| C=C(C)[C@@H]1CC[C@]2(C(=O)O)CC[C@]3(C)[C@H](CC[C@@H]4[C@@]5(C)CC[C@H](O)C(C)(C)[C@@H]5CC[C@]43C)[C@@H]12 [Betulinic acid] | 16.4% |  |  |
| C[C@H](NC(=O)C(=O)Nc1ccccc1C(C)(C)C)C(=O)N[C@@H](CC(=O)O)C(=O)COc1c(F)c(F)cc(F)c1F [Emricasan] | 198% |  |  |
